Measurements reported in ChEMBL document CHEMBL1142618, “Mycalamide D, a new cytotoxic amide from the New Zealand marine sponge Mycale species” (J Nat Prod, 2000).

Tests used:
Assay type in all cases: functional, cell-based
[1] = test system: P388; assay: Cytotoxicity against mouse P388 cells after 96 hrs by MTT assay; conditions: P388, 96 h
[2] = test system: LLC-PK1; assay: Cytotoxicity against pig LLC-PK1 cells after 96 hrs by MTT assay; conditions: Sus scrofa, LLC-PK1, 96 h
[3] = Cytotoxicity against human H441 cells after 96 hrs by MTT assay; conditions: NCI-H441, 96 h
[4] = test system: SH-SY5Y; assay: Cytotoxicity against human SH-SY5Y cells after 96 hrs by MTT assay

Row | SMILES | IC50 [1] [nM] | IC50 [2] [nM] | IC50 [3] [nM] | IC50 [4] [nM]
1 | C=C1C[C@](OC)([C@H](O)C(=O)N[C@H]2OCO[C@H]3[C@@H]2O[C@H](C[C@H](O)CO)C(C)(C)[C@@H]3O)O[C@H](C)[C@@H]1C [MYCALAMIDE D] | 65.5 | – | – | –
2 | C=C1C[C@](OC)([C@H](O)C(=O)N[C@H]2OCO[C@H]3[C@@H]2O[C@H](C[C@H](O)CO)C(C)(C)[C@@H]3OC)O[C@H](C)[C@@H]1C [MYCALAMIDE A] | 5.2 | 0.65 | 0.46 | 0.52
3 | C=C1C[C@](OC)([C@H](O)C(=O)N[C@H]2OCO[C@H]3[C@@H]2O[C@H](C[C@@H](CO)OC)C(C)(C)[C@@H]3OC)O[C@H](C)[C@@H]1C [MYCALAMIDE B] | 1.3 | 19.4 | 9.3 | 6.42
